# Test results reported in patent US7115707B2, “Amino acid sequences capable of facilitating penetration across a biological barrier” (Chiasma, Inc., priority 2002, dated 2006).
# “And” between values parts separate entries of the source, which are not always exact repeats. Equal values may be shown once.
# Experiments:
# [1] = Heparin translocation: clotting time after rectal administration of penetration composition; assay type: in vivo, male BALB/c mice; details: for Clotting time, measured at follow times after injection: 5 min / Clotting time, measured at follow times after injection: 15 min / Clotting time, measured at follow times after injection: 30 min / Clotting time, measured at follow times after injection: 60 min / Clotting time, measured at follow times after injection: 90 min / Clotting time, measured at follow times after injection: 120 min / Clotting time, measured at follow times after injection: 150 min / Clotting time, measured at follow times after injection: 0: rectal 100 μl/mouse, heparin 10 mg/ml composition, one mouse per line; for Clotting time, measured at follow times after injection: 60 min / Clotting time, measured at follow times after injection: 90 min / Clotting time, measured at follow times after injection: 120 min / Clotting time, measured at follow times after injection: 150 min: * = clotting appeared but did not progress
# Experimental: (§1) SEQ ID NO: 36 was hydrophobized via acylation of the free amino groups of the two lysine residues at the C-terminus of the penetrating peptide with a myristoyl. Acylation with myristoyl was achieved by incubating the peptide with myristoyl chloride in a molar ratio of 1:10, under basic pH conditions in the presence of appropriate solvents (benzyl benzoate and di-methyl formamide, with 1% bicarbonate). The hydrophobized peptide was then incorporated into the penetration composition, which further contained heparin, and the counter cation 1-butyl-3-methylimidazolium chloride (BMIC). Additional components of the penetration composition are specified in Table 5.
# Four male BALB/c mice, 9–10 weeks old, were deprived of food, 18 hours prior to the experiment. The mice were anesthetized by i.p. injection of 0.05 ml of a mixture of 0.15 ml xylazine+0.85 ml of ketamin. The penetration composition was then rectally administered to the mice, 100μl/mouse, using a plastic tip covered with a lubricant. Penetration was assessed via measurement of clotting time, at different time intervals after heparin administration. Five minutes post administration the tip of the tail was cut and a 50 μl blood sample was drawn into a glass capillary. The capillary was broken at different time intervals, until clot formation was observed. This was repeated at 15, 30, 60, 90, 120 and 150 minutes post administration. The animals were subsequently sacrificed.
# In similar experiments, a control peptide (SEQ ID NO:16), lacking the penetrating peptide-sequence, was similarly hydrophobized and incorporated into the penetration composition of Table 5 and then rectally administered to the mice.
# [2] = Insulin translocation with BKC as counter ion: blood glucose levels after i.p. or rectal administration (FIG. 4, Table 9); assay type: in vivo, male SD rats; details: rectal administration, rats, BKC counter ion (FIG. 4)
# Experimental: as §1, with “36 (also called IBW-002V2)” for “36”, “a lyophilizate of (1) insulin, (2)” for “heparin, and”, “Benzalkonium Chloride (BKC), and (3) phytic acid at a ratio of 1:0.5:0.5.” for “1-butyl-3-methylimidazolium chloride (BMIC).”, “8.” for “5.”
# Twelve male SD rats, 160–190 gr, were deprived of food, 18 hours prior to the experiment. The animals were divided into groups. The preparations were administered as follows: Rats #1,2-rectal PBS 200 ul, rats #3,4-rectal 200 ul penetration composition as specified above without peptide (5 IU insulin), rat #5-i.p. 200 ul penetration composition with peptide (1 IU insulin), rats #6,7-rectal 200 ul penetration composition with peptide (5 IU insulin). Blood glucose levels were measured at various time intervals post administration, in blood samples drawn from the tip of the tail. Glucose levels were plotted against time post insulin administration (See FIG. 4).
# [3] = Insulin translocation with HMIC as counter ion: blood glucose levels after i.p. or rectal administration (FIG. 3); assay type: in vivo, male BALB/c mice; details: 70 ul/mouse, 0.2 IU insulin
# Experimental: SEQ ID NO: 36 (also called IBW-002V2) and SEQ ID NO: 16 (also called IBW-001) were hydrophobized via acylation of the free amino groups of the two lysine residues at the C-terminus of the penetrating peptides with a myristoyl. Acylation with myristoyl was achieved by incubating the peptide with myristoyl chloride in a molar ratio of 1:10, under basic pH conditions in the presence of appropriate solvents (benzyl benzoate and di-methyl formamide, with 1% bicarbonate). The hydrophobized peptides were then incorporated into the penetration composition, which further contained insulin, and the counter cation 1-hexyl-3-methylimidazolium chloride (HMIC). Additional components of the penetration composition are specified in Table 7.
# Eight male BALB/c mice, 9–10 weeks old, were deprived of food, 18 hours prior to the experiment. The animals were divided into 4 groups. Each preparation was administered to 2 groups of mice either i.p. (70 ul/mouse, containing 0.2 IU insulin) or rectal (70 ul/mouse, containing 0.2 IU insulin). Blood glucose levels were measured at various time intervals post administration, in blood samples drawn from the tip of the tail. Glucose levels were plotted against time post insulin administration (See FIG. 3).
Substance,"Clotting time, measured at follow times after injection: 5 min [1]","Clotting time, measured at follow times after injection: 15 min [1]","Clotting time, measured at follow times after injection: 30 min [1]","Clotting time, measured at follow times after injection: 60 min [1]","Clotting time, measured at follow times after injection: 90 min [1]","Clotting time, measured at follow times after injection: 120 min [1]","Clotting time, measured at follow times after injection: 150 min [1]","Clotting time, measured at follow times after injection: 0 [1]",blood glucose levels [2],blood glucose levels ([3]; i.p.),blood glucose levels ([3]; rectal),"average clotting time ([1]; rectal, heparin composition of Table 5, compared to the full conjugate of the penetrating peptide)"
"AcMYYDITLALAGICQSARLVQQLAGGGKGGKNH2 (Ac-MYYDITLALAGICQSARLVQQLAGGGKGGK-NH2) [SEQ ID NO: 36, penetrating peptide]",1′ (2×) and 2′ (2×),1.5′ and 3′ and 1′ (2×),1.5′ (2×) and 2′ and 3′,8′* and 9′* and 2.5′ and 6′,9′* (2×) and 7′* and 5′,15′* and 7′* and 3′ and 8′*,17′* and 9′* and 4′ and 6′,1.5′ (2×) and 1′ and 2.5′,dropped gradually and significantly,dropped gradually and significantly,dropped gradually and significantly,–
"GGKGGK (Linker) [SEQ ID NO: 16, reference compound]",1′,1′,2′,5′,4′,2′,3′,1′,–,significant drop,No change,only slightly elongated
